Measured values as given in ChEMBL document CHEMBL5209568, “Membrane potential based assay for SLC5A11 using HEK-293 SLC5A11 OE cells” (2022).

Biological target: T1, Sodium/myo-inositol cotransporter 2 (Homo sapiens, UniProt Q8WWX8)
T1 sequence (Q8WWX8 whole entry): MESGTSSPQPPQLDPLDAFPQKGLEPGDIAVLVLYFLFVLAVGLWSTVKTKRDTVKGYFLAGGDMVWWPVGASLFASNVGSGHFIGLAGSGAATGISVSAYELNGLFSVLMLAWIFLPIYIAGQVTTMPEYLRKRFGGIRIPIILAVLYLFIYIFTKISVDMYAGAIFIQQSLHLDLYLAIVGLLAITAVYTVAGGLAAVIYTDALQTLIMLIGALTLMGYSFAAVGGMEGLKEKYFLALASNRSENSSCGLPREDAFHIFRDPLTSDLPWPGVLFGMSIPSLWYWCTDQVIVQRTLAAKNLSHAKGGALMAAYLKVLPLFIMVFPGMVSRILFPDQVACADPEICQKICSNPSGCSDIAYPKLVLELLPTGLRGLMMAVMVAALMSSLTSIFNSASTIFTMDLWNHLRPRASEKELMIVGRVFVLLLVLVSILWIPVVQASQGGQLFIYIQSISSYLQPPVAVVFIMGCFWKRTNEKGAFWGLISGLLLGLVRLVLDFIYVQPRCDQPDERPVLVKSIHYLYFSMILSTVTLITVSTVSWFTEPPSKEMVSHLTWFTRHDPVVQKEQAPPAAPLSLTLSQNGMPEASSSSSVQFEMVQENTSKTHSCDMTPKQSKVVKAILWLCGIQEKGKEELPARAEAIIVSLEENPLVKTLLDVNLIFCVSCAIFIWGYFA
Test: Substrate uptake by the Sodium/myo-inositol cotransporter 2 (SMIT2, SLC5A11) as assessed by the fluorescent FLIPR membrane potential dye in HEK-293 JumpIN-SLC5A11 cells (PubChem AID: 1794826)
Type: functional, cell-based, HEK293

EC50: 104 µM
SMILES: O[C@H]1[C@@H](O)[C@@H](O)[C@@H](O)[C@@H](O)[C@@H]1O
